Experiment [1] relates to TF1 JAK2 V617F STAT5 reporter. The experiment in a line: Cellular TF1 STAT5 assay (luciferase reporter), JAK2 V617F. It counts as cell-based. Particulars: read-out: Cell PD TF1 V617F STAT5 (IC50). As for the experimental part: (§1) Selected compounds of the present disclosure were tested in a Cellular TF1 STAT3 or STAT5 assay, to measure the degree of JAK2-mediated STAT3 or STAT5 phosphorylation, respectively. TF1 cells (immortalized erythroleukemia line) expressing either wildtype or V617F mutant JAK2 with a luciferase reporter were used.
(§2) Cell culture: Cells were put into antibiotic selection (1 ug/ml puro+500 ug/ml Geneticin) when first thawed then maintained in growth media without antibiotics. Cells were maintained in exponential growth phase, between 0.02-1 E6 cells/ml.
(§3) Compound preparation: Compounds were screened as 10-point dose response curves 1:3 dilutions. DMSO is used as the vehicle control. All wells were normalized to the same final DMSO concentration. Compounds were pre-spotted onto 384 well plates using an Echo acoustic dispenser, 50 nL of 1000× (10 mM top concentration) DMSO stock/well. Each compound is run in triplicate plates.
(§4) Cell plating: Cells were counted using Vi-Cell XR, then cells were spun down and resuspended in growth media to 200,000 cells/ml. Cells were added to plates containing compound. 10,000 cells/well in 50 ul volume using a Biomek liquid handler. Plates were briefly mixed on a shaker for 1 minute at 2500 rpm then placed in a 37° C., 5% CO2 incubator overnight for 18-20 hrs.
(§5) Measuring luciferase activity: ONE-glo reagent was brought to room temperature, and 25 μL of ONE-glo assay reagent was added to each well using Biomek liquid handler. The plates were incubated for 10 minutes at room temperature, then luminescence was measured on an Envision plate reader.

Experiment [2] concerns the target T1, JAK2 JH2 WT (V536-D812) [W659A, W777A, F794H solubilizing mutations] (Homo sapiens, UniProt O60674, F794H/W659A/W777A).
T1 construct: **JAK2 JH2 WT (V536-D812) [W659A, W777A, F794H solubilizing mutations]; C-thrombin-avi-His6; thrombin cleavage site (C); His6 (C); purchased Biortus
In words: Surface Plasmon Resonance (SPR) binding assay, JAK2 JH2 domain. As for the experimental part:
Selected compounds of the present disclosure were tested in a Surface Plasmon Resonance (SPR) Assay to measure their binding kinetics and affinity for proteins of interest.
Prepare buffer: 50 mM HEPES pH 7.5, 150 mM NaCl, 0.05% (v/v) Tween, and 10% (v/v) glycerol were combined and pH was adjusted to 7.5, then filtered. 5 mM DTT, was added, and buffer without DMSO was reserved for compound resuspension. 2% (v/v) DMSO was added for assay buffer, and separately 1% DMSO was used to make buffer for resuspending compounds.
Prepare compounds: Using a Bravo liquid handler, 99 μL of 1% (v/v) DMSO assay buffer was added to 1 μL compounds in DMSO.
Run 8K Method: Biotin CAPture (CAP) chip surface was regenerated prior to run by: Inserting CAP chip into Biacore 8K, prime machine with assay buffer with 2% (v/v) DMSO; Setting instrument temperature to 20° C.; Conditioning surface with NaOH/GdnHCl reagents from CAP chip kit (60 seconds, 10 μL/min); and Capturing oligo-Streptavidin (SA) reagent from CAP kit (600 seconds, 1 μL/min), expected capture ˜2500 RU. JAK2 JH1 or JH2 protein was immobilized by preparing a sample of 0.5 uM JH1 or 0.4 uM JH2 protein diluted in assay buffer without DMSO and supplemented with 10 uM of a selected compound of the invention as a stabilizer (370 seconds, 5 uL/min), expected capture ˜1000 RU. Remaining biotin sites on SA were blocked with 1 uM biotin (30 seconds, 20 uL/min), then equilibrated for 1800 seconds at 100 uL/min. Compounds being assayed were run in single cycle kinetics: 4 doses with a top concentration of 5 uM (JH1) or 500 nM (JH2), dilution factor of 3, at 20° C., for a contact time of 60 seconds, and a dissociation time of 300 seconds (JH1) or 1200 seconds (JH2), at a flow rate of 30 uL/min. The surface was completely regenerated after each compound is run, and JH1 or JH2 protein was immobilized fresh prior to each new compound. Data were fitted kinetically with 1:1 binding model using Biacore Insight Evaluation Software.

Experiment [3] has as its system TF1 JAK2 V617F STAT3 reporter. In words: Cellular TF1 STAT3 assay (luciferase reporter), JAK2 V617F. It counts as cell-based. Particulars: read-out: Cell PD-TF1 JAK2 V617F STAT3 (IC50). How it is done:
as §1, §2, §3, §4, §5

The mark [4] stands for this setting: Homo sapiens, TF-1, TF1 cells, JAK2 V617F.

Read-outs that look alike come from different tables or passages of the source.

T1 sequence (O60674 536-812 W659A/W777A/F794H): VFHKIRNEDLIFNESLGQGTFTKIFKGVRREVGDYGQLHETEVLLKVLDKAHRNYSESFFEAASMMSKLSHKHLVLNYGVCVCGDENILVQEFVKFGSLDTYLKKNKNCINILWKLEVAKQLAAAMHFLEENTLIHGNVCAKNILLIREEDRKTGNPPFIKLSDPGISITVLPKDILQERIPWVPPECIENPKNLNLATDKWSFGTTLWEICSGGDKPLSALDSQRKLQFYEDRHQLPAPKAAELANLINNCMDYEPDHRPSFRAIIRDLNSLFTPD

`CNC(=O)c1nnc(NC(=O)OC2CC2)cc1Nc1cccc(-c2cnn(C3CC(Oc4cccc(C#N)n4)C3)c2)c1OC` (mixture of isomers) [Compound 345]: the concentration for half-maximal inhibition (IC50) in experiment [1] (setting [4]) lay in the range of 500 to 5000 nM; in experiment [3] (setting [4]), 5000 to 100000 nM. In experiment [2], this compound gave a Kd of 0.01 to 10 nM.
For the compound `CNC(=O)c1nnc(NC(=O)C2CC2)cc1Nc1cccc(-c2cnn(C3CN(C(C)c4ccccn4)C3)c2)c1OC` (racemic) [Compound 127], the IC50 in experiment [1] (TF1 JAK2 V617F) and in experiment [3] (TF1 JAK2 V617F) was 500 to 5000 nM each time. In experiment [2] (SPR, JAK2 JH2 domain), this compound yielded a Kd of 0.01 to 10 nM.
`CNC(=O)c1nnc(NC(=O)C2CC2)cc1Nc1cccc(-c2cn([C@@H]3CN(Cc4cccc(C#N)n4)[C@H]3C)nn2)c1OC` (racemic) [Compound 214]: the IC50 in experiment [1] (setting [4]) and in experiment [3] (setting [4]) was 50 to 500 nM throughout. This compound also registered a Kd in experiment [2] of 0.01 to 10 nM.
As for `CNC(=O)c1nnc(NC(=O)C2CC2)cc1Nc1cccc(-c2cnn(C3CN(C(C)c4cccc(C#N)n4)C3)c2)c1OC` (racemic) [Compound 227], the IC50 in experiment [1] (setting [4]) and in experiment [3] (setting [4]) was 500 to 5000 nM in each case. For the same compound, in experiment [2], the Kd fell in the range of 0.01 to 10 nM.
`CNC(=O)c1nnc(NC(=O)C2CC2)cc1Nc1cccc(-c2cn([C@@H]3CN(Cc4cccc(C)n4)[C@H]3C(OC)OC)nn2)c1OC` (racemic) [Compound 247]: the IC50 in experiment [1] (setting [4]) and in experiment [3] (setting [4]) was 500 to 5000 nM throughout. In addition, in experiment [2], the Kd lay in the range of 0.01 to 10 nM.
As for `CNC(=O)c1nnc(NC(=O)C2CC2)cc1Nc1ccc(C)c(-c2cn([C@@H]3CN(Cc4cccc(C)n4)[C@H]3C)nn2)c1OC` (racemic) [Compound 270], the IC50 in experiment [1] (setting [4]) and in experiment [3] (setting [4]) was 500 to 5000 nM in each case. The compound further showed a Kd in experiment [2] of 0.01 to 10 nM.
For `CNC(=O)c1nnc(NC(=O)C2CC2)cc1Nc1cccc(-c2cnn(C3CN(C(C#N)c4ccccn4)C3)c2)c1OC` (racemic) [Compound 315], the IC50 was in the range of 5000 to 100000 nM in experiment [1] (setting [4]) and 500 to 5000 nM in experiment [3] (setting [4]). This compound also showed a Kd in experiment [2] of 0.01 to 10 nM.
Take `CNC(=O)c1nnc(NC(=O)C2CC2)cc1Nc1cccc(-c2ccc(C(=O)N(C)[C@H](C)c3nc(C)no3)nc2)c1OC` (single isomer, unassigned) [Compound 65]: the IC50 in experiment [1] (TF1 JAK2 V617F) and in experiment [3] (TF1 JAK2 V617F) was 500 to 5000 nM in each case. Besides, the Kd in experiment [2] (SPR, JAK2 JH2 domain) is 0.01 to 10 nM.
In the case of `CNC(=O)c1nnc(NC(=O)C2CC2)cc1Nc1cccc(-c2ccc(C(=O)N(C)[C@H](C)c3cnn(C)c3)nc2)c1OC` (single isomer, unassigned) [Compound 115], the IC50 in experiment [1] (TF1 JAK2 V617F) and in experiment [3] (TF1 JAK2 V617F) was 5000 to 100000 nM in each case. The compound also showed a Kd in experiment [2] (SPR, JAK2 JH2 domain) of 10 to 50 nM.
On to `CNC(=O)c1nnc(NC(=O)C2CC2)cc1Nc1cccc(-c2ccc(C(=O)N(C)[C@@H](C)c3cnn(C)c3)nc2)c1OC` (single isomer, unassigned) [Compound 116], for which the IC50 in experiment [1] (TF1 JAK2 V617F) lay within 500 to 5000 nM; in experiment [3] (TF1 JAK2 V617F), 50 to 500 nM. This compound also registered a Kd in experiment [2] (SPR, JAK2 JH2 domain) of 0.01 to 10 nM.
The corresponding values for `CNC(=O)c1nnc(NC(=O)C2CC2)cc1Nc1ccc(C)c(-c2cnc(C(=O)N(C)C[C@H]3CCN(C)C3=O)c(F)c2)c1OC` (single isomer, unassigned) [Compound 117] are 5000 to 100000 nM, 5000 to 100000 nM and 0.01 to 10 nM.
Consider `CNC(=O)c1nnc(NC(=O)C2CC2)cc1Nc1cccc(-c2cnn(C3CN(Cc4cccc([S@+](C)[O-])n4)C3)c2)c1OC` (single isomer, unassigned) [Compound 402], for which the half-inhibitory concentration (IC50) in experiment [1] (setting [4]) fell in the range of 50 to 500 nM.
For the compound `CNC(=O)c1nnc(NC(=O)C2CC2)cc1Nc1cccc(-c2cnn(C3CN(Cc4cccc([S@@+](C)[O-])n4)C3)c2)c1OC` (single isomer, unassigned) [Compound 403], the IC50 in experiment [1] (setting [4]) is 50 to 500 nM.
The same measure, in the same setting: as for `CNC(=O)c1nnc(NC(=O)C2CC2)cc1Nc1cccc(-c2ccc(C(=O)N(C)Cc3cc([S@@+](C)[O-])ccn3)nc2)c1OC` (single isomer, unassigned) [Compound 405], the figure is 50 to 500 nM; as for `CNC(=O)c1nnc(NC(=O)C2CC2)cc1Nc1cccc(-c2ccc(C(=O)N(C)Cc3cc([S@+](C)[O-])ccn3)nc2)c1OC` (single isomer, unassigned) [Compound 407], 500 to 5000 nM.
In experiment [2] (SPR, JAK2 JH2 domain), `CNC(=O)c1nnc(NC(=O)C2CC2)cc1Nc1cccc(-c2ccc(C(=O)N(C)C(C)c3cnn(C)c3)nc2)c1OC` (centres unmarked) [Compound 46] returned a Kd of 0.01 to 10 nM.
Still for that read-out and setting: as for `[2H]C([2H])([2H])N(Cc1cc(C#N)ccn1)C(=O)c1ncc(-c2c(C)ccc(Nc3cc(NC(=O)C4CC4)nnc3C(=O)NC)c2OC)cn1` [Compound 87], the figure is 0.01 to 10 nM.
In the case of `CNC(=O)c1nnc(NC(=O)C2CC2)cc1Nc1cccc(-c2cnn(C3CN(Cc4nn(C)cc4C)C3)c2)c1OC` [Compound 215], the IC50 in experiment [1] (setting [4]) and in experiment [3] (setting [4]) was 500 to 5000 nM throughout.
As to `CNC(=O)c1nnc(NC(=O)C2CC2)cc1Nc1cccc(-c2ccc(C(=O)N(C)Cc3cc(C#N)ccn3)c(C(F)F)c2)c1OC` [Compound 233], the IC50 in experiment [1] (setting [4]) and in experiment [3] (setting [4]) was 500 to 5000 nM in each case.
As for `CNC(=O)c1nnc(NC(=O)C2CC2)cc1Nc1nccc(-c2ccc(C(=O)N(C)Cc3ncc(COC)s3)nc2)c1OC` [Compound 375], the dissociation constant Kd in experiment [2] lay within 0.01 to 10 nM.
As to `CNC(=O)c1nnc(NC(=O)C2CC2)cc1Nc1cccc(-c2ccc(C3CN(Cc4ncc(OC)cc4Cl)C3)nc2)c1OC` [Compound 386], the IC50 in experiment [1] (setting [4]) lay within 500 to 5000 nM; in experiment [3] (setting [4]) it was 5000 to 100000 nM.
The corresponding values for `CNC(=O)c1nnc(NC(=O)C2CC2)cc1Nc1cccc(-c2ccc(C3CN(Cc4ccc(C(F)(F)F)cn4)C3)nc2)c1OC` [Compound 387] are 500 to 5000 nM and 5000 to 100000 nM.
For the compound `CNC(=O)c1nnc(NC(=O)C2CC2)cc1Nc1cccc(-c2ccc(C3CN(Cc4ccc(OC5CC5)cn4)C3)nc2)c1OC` [Compound 390], the Kd in experiment [2] fell in the range of 50 to 500 nM.
Take `COc1c(Nc2cc(NC(=O)C3CC3)nn3cc(C(N)=O)nc23)ccc(C)c1-c1cnn(C2CN(Cc3ccccn3)C2)c1` [Compound 392]: the half-maximal inhibitory concentration (IC50) in experiment [1] (setting [4]) and in experiment [3] (setting [4]) was 5000 to 100000 nM in each case.
With `CNC(=O)c1nnc(NC(=O)C2CC2)cc1Nc1cccc(-c2cc(N3CC(Oc4ccccn4)C3)n(C)n2)c1OC` [Compound 393], the IC50 in experiment [1] (setting [4]) was in the range of 5000 to 100000 nM; in experiment [3] (setting [4]) it was 500 to 5000 nM.
For `COc1c(Nc2cc(NC(=O)C3CC3)nn3cc(C#N)nc23)ccc(C)c1-c1cnn(C2CN(Cc3ccccn3)C2)c1` [Compound 395] the same measures were 5000 to 100000 nM and 5000 to 100000 nM.
Take `CNC(=O)c1nnc(NC(=O)C2CC2)cc1Nc1cc(F)c(C)c(-c2ccc(C(=O)N(C)Cc3cc(S(C)(=O)=O)ccn3)nc2)c1OC` [Compound 400]: the IC50 in experiment [1] (setting [4]) fell in the range of 50 to 500 nM.
With `CNC(=O)c1nnc(NC(=O)C2CC2)cc1Nc1ccc(Cl)c(-c2ccc(C(=O)N(C)Cc3cc(S(C)(=O)=O)ccn3)nc2)c1OC` [Compound 401], the IC50 in experiment [1] (setting [4]) is 50 to 500 nM.
On to `CNC(=O)c1nnc(NC(=O)C2CC2)cc1Nc1cccc(-c2cc(N3CC(Cc4ccccn4)C3)n(C)n2)c1OC` [Compound 404], for which, in experiment [1] (setting [4]), the IC50 fell in the range of 5000 to 100000 nM.
As to `COc1c(Nc2cc(NC(=O)C3CC3)nnc2-c2ncc[nH]2)cccc1-c1cnn(C2CN(Cc3ccccn3)C2)c1` [Compound 406], the IC50 in experiment [1] (setting [4]) fell in the range of 5000 to 100000 nM.

For the origin of these results see US20240368122A1, “JAK2 INHIBITORS AND METHODS OF USE THEREOF” (RELAY THERAPEUTICS, INC., priority 2021, published 2024).
